Data: US6268181A, “Methods for producing a potentiator of Bacillus pesticidal activity” (Valent BioSciences, Corporation, priority 1998, dated 2001)

Experiments:
[1] = system: Spodoptera exigua; experiment: Spodoptera exigua micro-bioassay (potentiation of Bt Cry protein by Ia); format: in vivo
Method: Activity is monitored by a Spodoptera exigua micro-bioassay, and purity is determined by capillary electrophoresis. […] The trays containing the various samples are air dried. Two to four 2nd or early 3rd instar Spodoptera exigua are added to the wells containing the dried sample. The wells are sealed with mylar poked with holes and are incubated for 2-3 days at 30° C. Degree of stunting and percent mortality are then recorded. Typically, 5 replicate wells are run for each sample.
*Mortality = # insects dead/# total insects after 2 days
.dagger.Stunt score is defined by the average size of the live insect
larvae at the end of the bioassay: 4.0 = untreated control, 3.0 = 75% size
of untreated control, 2.0 = 50% size of untreated control, 1.0 = 25% size
of untreated control, 0.0 = no growth or size unchanged from start of […]

[2] = Stability of Ia determined by bioassay; format: physicochemical
Method: Activity is monitored by a Spodoptera exigua micro-bioassay, and purity is determined by capillary electrophoresis. Sample consisting of 50 μl of Ia and 50 μl of CryIA(c) protein (15 μg/ml) purified from BIOBIT™ FC (100 μl), is applied to individual wells of a jelly tray containing 500 μl of solidified artificial insect diet. The trays containing the various samples are air dried. Two to four 2nd or early 3rd instar Spodoptera exigua are added to the wells containing the dried sample. The wells are sealed with mylar poked with holes and are incubated for 2-3 days at 30° C. Degree of stunting and percent mortality are then recorded. Typically, 5 replicate wells are run for each sample.
Further, it is stable when subjected to direct sunlight for at least 10 hours. Ia is stable at pH 2 for 3 days, but unstable at pH 12.

[3] = Solubility of the active compound; format: physicochemical
[4] = system: Spodoptera exigua; experiment: Diet incorporation bioassay, third instar Spodoptera exigua; format: in vivo
Method: (§1) B.t.k. activity is determined by an artificial diet incorporation bioassay using third instar Spodoptera exigua larvae, second instar Helicoverpa zea larvae, third instar Spodoptera frugiperda larvae, second instar Heliothis virescens larvae, third instar Trichoplusia ni larvae, third instar Pseudoplusia includens larvae, third instar Plutella xylostella larvae, third instar Spodoptera littoralis, and third instar Mamestra brassicae larvae.
(§2) To determine the level of potentiation by adding Ia to B.t. products, and establish the range of insects that are affected, diet incorporation bioassays are performed. In the experiments with high concentrations of Ia against Spodoptera exigua (7.4-23.7 g Ia/BIU), purified Ia (70% active ingredient, 30% acetate counter ion) is used to potentiate BIOBIT™ FC (FC represents flowable concentrate). […] S. littoralis and M. brassicae are tested using FLORBAC™ HPWP and Ia.
(§3) The various B.t. products are weighed and Ia is added to give 0.1 to 237 g Ia/BIU. The volume is adjusted with 0.1% Tween™. The samples are sonicated for 1 minute and then diluted to final volume. Neat samples (without Ia) and reference substances are prepared as well. Reference substances include B.t.k.
(§4) Standard artificial diet composed of water, agar, sugar, casein, wheat germ, methyl paraben, sorbic acid, linseed oil, cellulose, salts, and vitamins are prepared in a 20 L heated kettle. This provides enough diet to test 10 to 12 samples with seven different concentrations of each test substance. The B.t. solutions are serially diluted to give 16 ml aliquots. Each aliquot is added to 184 g of molten diet. The mixture is subsequently homogenized and then poured into a plastic tray bearing 40 individual cells. Three control trays are prepared for each batch of diet. Once the diet has cooled and solidified, one insect of a known age (2-3 instar) is added to each cell, and the trays are covered with a perforated sheet of clear mylar. The trays are placed on racks and incubated for four days at 28° C. and 65% relative humidity.
(§5) After four days, insect mortality is rated. […] Percent mortality is calculated and the data is analyzed via parallel probit analysis. LC50 s, LC90 s, the slope of the regression lines, coefficient of variation, and potencies are estimated. Samples are run a minimum of 3 times or until three potencies are within 20% of a calculated mean for each sample. To calculate the increase in activity associated with each concentration of Ia, the LC50 of the B.t./Ia sample is corrected to reflect the amount of B.t. in the sample. The Lc50 s of the paired neat samples are divided by the corrected LC50 values to give the fold reduction in LC50 associated with Ia.
The potentiation of various produces on Spodoptera exigua by Ia is determined using diet incorporation bioassays described supra. Ia/B.t. product mixture is incorporated into an agar-based wheat germ casein diet. The insects are placed on the diet for four days and held at 28° C. Mortality is recorded and analyzed using probit analysis. LC50, LC90 and potency are calculated from matched product lacking Ia. The results shown in Table V indicate that Ia potentiate various B.t.k. and B.t.a. products obtained from various sources. The B.t. strains contained in these products are described in Section 5.2., supra.

[5] = system: Spodoptera frugiperda; experiment: Diet incorporation bioassay, third instar Spodoptera frugiperda; format: in vivo; details: BIOBIT HPWP
Method: as §1, §2, §3, §4, §5

[6] = system: Trichoplusia ni; experiment: Diet incorporation bioassay, third instar Trichoplusia ni; format: in vivo; details: BIOBIT HPWP
Method: as §1, §2, §3, §4, §5

[7] = system: Pseudoplusia includens; experiment: Diet incorporation bioassay, third instar Pseudoplusia includens; format: in vivo; details: BIOBIT HPWP
Method: as §1, §2, §3, §4, §5

[8] = system: Plutella xylostella; experiment: Diet incorporation bioassay, third instar Plutella xylostella; format: in vivo; details: BIOBIT HPWP
Method: as §1, §2, §3, §4, §5

[9] = system: Helicoverpa zea; experiment: Diet incorporation bioassay, second instar Helicoverpa zea; format: in vivo; details: BIOBIT HPWP, 3.2 g Ia per BIU
Method: as §1, §2
as §3, with “B.t.k. […]” for “B.t.k.”
(§6) After four days, insect mortality is rated. […] Percent mortality is calculated and the data is analyzed via parallel probit analysis. […]

[10] = system: Heliothis virescens; experiment: Diet incorporation bioassay, second instar Heliothis virescens; format: in vivo; details: BIOBIT HPWP, 3.2 g Ia per BIU
Method: as §1, §2
as §3, with “B.t.k. […]” for “B.t.k.”
as §6

[11] = system: Lobesia bothrana; experiment: Lobesia bothrana assay (larvae drinking dilution, grape berries); format: in vivo; details: BIOBIT HPWP, 2.0 g Ia per BIU
Method: The following procedure is used to assay for Lobesia bothrana. Vine grapes attacked by Lobesia bothrana are collected in an unsprayed field and larva is removed. A dilution series of Ia (250 μg/ml, 500 μg/ml, and 1000 μg/ml) is made in water. One larva is put in the middle of the petri dish. If the larva is observed to drink, it is moved into a petri dish with freshly cut grape berries. The larvae are stored at 22° C. for 3-4 days.

[12] = system: Spodoptera littoralis; experiment: Diet incorporation bioassay, third instar Spodoptera littoralis; format: in vivo; details: FLORBAC HPWP, 2.0 g Ia per BIU
Method: as §1, §2
as §3, with “B.t.k. […]” for “B.t.k.”
as §6

[13] = system: Mamestra brassicae; experiment: Diet incorporation bioassay, third instar Mamestra brassicae; format: in vivo; details: FLORBAC HPWP, 2.0 g Ia per BIU
Method: as §1, §2
as §3, with “B.t.k. […]” for “B.t.k.”
as §6

SMILES: NC(=O)NCC(NC(=O)C(O)C(O)C(N)C(O)CC(O)C(N)CO)C(N)=O (centres unmarked) [Ia]
- potentiation of crystal delta-endotoxin ([1]; Bacillus thuringiensis subsp. kurstaki and aizawai crystal delta-endotoxin proteins): potentiate the activity
- level of potentiation ([1]; CryIC inclusions): 250 fold
- potentiation of pesticidal activity ([1]; CryII and CryIC inclusions): also potentiated
- potentiation ([1]; CryII inclusions): 125 fold
- Mortality ([1]; Ia alone, no Bt protein, after 2 days): 0/5
- Stunt Score ([1]; Ia alone, no Bt protein, 4.0 = untreated control, 0.0 = no growth): 4.0
- potentiation of pesticidal activity ([1]; formulated B.t.k., isolated crystals, full-length or truncated CryIA proteins): all potentiated
- level of potentiation ([1]; full-length CryIA(c)): approximately 320 fold
- potentiation of pesticidal activity ([1]; individual truncated CryIA(a), (b), and (c) proteins): potentiate the activity
- level of potentiation ([1]; truncated CryIA proteins, CryII and CryIC inclusions): 100-200 fold
- activity of Ia alone ([1]; without Cry protein): inactive alone
- stability ([2]; autoclaving (>190C)): loses all activity
- stability ([2]; boiling for 5 minutes): stable
- stability ([2]; direct sunlight for at least 10 hours): stable
- stability ([2]; exposed to periodic acid or concentrated HCl): lose all activity
- stability ([2]; pH 2 for 3 days): stable
- stability ([2]; pH 12): unstable
- solubility in organic solvents ([3]; organic solvents): not soluble in organic solvents
- water solubility ([3]; water): water soluble
- Increase in activity, Fold reduction in LC50 ([4]; BIOBIT FC, 7.4 g Ia per BIU, purified Ia): 13 Fold
- Increase in activity, Fold reduction in LC50 ([4]; BIOBIT FC, 15 g Ia per BIU, purified Ia): 26 Fold
- Increase in activity, Fold reduction in LC50 ([4]; BIOBIT FC, 30 g Ia per BIU, purified Ia): 34 Fold
- Increase in activity, Fold reduction in LC50 ([4]; BIOBIT FC, 118 g Ia per BIU, purified Ia): 59 Fold
- Increase in activity, Fold reduction in LC50 ([4]; BIOBIT FC, 237 g Ia per BIU, purified Ia): 79 Fold
- Increase in activity, Fold reduction in LC50 ([4]; BIOBIT HPWP, 0.1 g Ia per BIU): 1.5 Fold
- Increase in activity, Fold reduction in LC50 ([4]; BIOBIT HPWP, 0.2 g Ia per BIU): 1.7 Fold
- Increase in activity, Fold reduction in LC50 ([4]; BIOBIT HPWP, 2.0 g Ia per BIU): 4.3 Fold
- Increase in activity, Fold reduction in LC50 ([4]; BIOBIT HPWP, 4.0 g Ia per BIU): 7.5 Fold
- Increase in activity, Fold reduction in LC50 ([5]; 0.2 g Ia per BIU): 2.2 Fold
- Increase in activity, Fold reduction in LC50 ([5]; 0.8 g Ia per BIU): 3.9 Fold
- Increase in activity, Fold reduction in LC50 ([5]; 2.0 g Ia per BIU): 7.2 Fold
- Increase in activity, Fold reduction in LC50 ([5]; 4.0 g Ia per BIU): 11.6 Fold
- Increase in activity, Fold reduction in LC50 ([6]; 0.1 g Ia per BIU): 1.1 Fold
- Increase in activity, Fold reduction in LC50 ([6]; 0.2 g Ia per BIU): 1.2 Fold
- Increase in activity, Fold reduction in LC50 ([6]; 2.0 g Ia per BIU): 2.0 Fold
- Increase in activity, Fold reduction in LC50 ([6]; 4.0 g Ia per BIU): 3.1 Fold
- Increase in activity, Fold reduction in LC50 ([7]; 0.1 g Ia per BIU): 0 Fold
- Increase in activity, Fold reduction in LC50 ([7]; 0.2 g Ia per BIU): 1.2 Fold
- Increase in activity, Fold reduction in LC50 ([7]; 0.8 g Ia per BIU): 2.1 Fold
- Increase in activity, Fold reduction in LC50 ([7]; 2.0 g Ia per BIU): 2.4 Fold
- Increase in activity, Fold reduction in LC50 ([7]; 4.0 g Ia per BIU): 3.4 Fold
- Increase in activity, Fold reduction in LC50 ([8]; 0.2 g Ia per BIU): 1.6 Fold
- Increase in activity, Fold reduction in LC50 ([8]; 0.8 g Ia per BIU): 1.3 Fold
- Increase in activity, Fold reduction in LC50 ([8]; 2.0 g Ia per BIU): 1.4 Fold
- Increase in activity, Fold reduction in LC50 ([8]; 4.0 g Ia per BIU): 1.9 Fold
- Increase in activity, Fold reduction in LC50 [9]: 12.6 Fold
- Increase in activity, Fold reduction in LC50 [10]: 4.2 Fold
- Increase in activity, Fold reduction in LC50 [11]: 3.0 Fold
- Increase in activity, Fold reduction in LC50 [12]: 8.6 Fold
- Increase in activity, Fold reduction in LC50 [13]: 4.9 Fold
